This is an account of results in publication PMC12112773, “Chemical Constituents and α-Glucosidase Inhibitory Activities of the Leaves of Embelia parviflora—In Vitro and In Silico Studies” (Life, 2025).

For assay [1], the target named is T1, α-glucosidase from Saccharomyces cerevisiae (Saccharomyces cerevisiae, UniProt P53341).
T1 construct: purchased Sigma Aldrich (St. Louis, MO, USA)
Kind of assay: in vitro assay of α-glucosidase enzyme inhibition (p-nitrophenyl α-D-glucopyranoside substrate). Format: biochemical.
Experimental: Enzyme α-glucosidase from Saccharomyces cerevisiae (E.C. 232-604-7) and p-nitrophenyl-α-D-glucopyranoside were purchased from Sigma Aldrich (St. Louis, MO, USA).
The in vitro assay of α-glucosidase enzyme inhibition of the E. parviflora MeOH extract and tested compounds was conducted following the methodology outlined in our earlier study [38]. Briefly, solutions of MeOH extract and isolated compounds at 256 μg/mL, 64 μg/mL, 16 μg/mL, 4 μg/mL, and 1 μg/mL concentrations were prepared using DMSO (Merck). The compound solution (2 μL) and 0.2 U/mL α-glucosidase enzyme solution (25 µL) in 120 µL phosphate buffer were mixed. After 5 min preincubation, a solution of 2.5 mM p-nitrophenyl α-D-glucopyranoside (25 µL) prepared in phosphate buffer was added. The reaction mixture was incubated at 37 °C for 30 min and was stopped by adding 0.2 M of Na2CO3 (100 µL). Enzymatic activity (the absorbance of the released p-nitrophenol) was quantified by measuring at 410 nm using a Biotek reader. The % inhibition was calculated using the following equation:Inhibition (%) = [1 − (Asample/Acontrol)] × 100
The biological experiments were performed in triplicate. The IC50 values are presented as the mean ± standard deviation (S.D) using the program Statistica 10.

For a further assay, the target named is α-glucosidase. To be noted: cited from earlier work.
Setting [2] is: mean ± S.D, triplicate, 37 °C, 30 min, read-out: α-Glucosidase inhibitory activity IC50.

The structures appear in SMILES notation. Where two headings read alike, the source gives them in different places. Some results are limits rather than exact numbers.

T1 sequence (P53341 whole entry): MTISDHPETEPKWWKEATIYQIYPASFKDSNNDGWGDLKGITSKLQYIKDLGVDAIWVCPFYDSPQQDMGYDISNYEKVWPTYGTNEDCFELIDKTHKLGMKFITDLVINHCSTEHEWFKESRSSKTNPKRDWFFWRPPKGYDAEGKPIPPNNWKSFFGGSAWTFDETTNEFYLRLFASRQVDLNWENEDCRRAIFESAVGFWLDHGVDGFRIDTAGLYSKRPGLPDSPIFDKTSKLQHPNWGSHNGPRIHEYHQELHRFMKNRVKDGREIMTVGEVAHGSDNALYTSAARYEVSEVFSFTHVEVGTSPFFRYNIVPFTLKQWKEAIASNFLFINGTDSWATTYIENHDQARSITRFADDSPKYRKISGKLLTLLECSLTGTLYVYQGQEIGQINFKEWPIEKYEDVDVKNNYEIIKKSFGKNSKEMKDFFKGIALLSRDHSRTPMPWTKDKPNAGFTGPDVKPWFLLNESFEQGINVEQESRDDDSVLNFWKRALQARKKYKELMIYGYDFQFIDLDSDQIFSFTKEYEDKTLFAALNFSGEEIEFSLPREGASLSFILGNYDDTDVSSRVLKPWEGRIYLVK

With `CC[C@H](CC[C@@H](C)[C@H]1CC[C@H]2[C@@H]3CC=C4C[C@@H](O)CC[C@]4(C)[C@H]3CC[C@]12C)C(C)C` [Compound 1, β-sistosterol], in assay [1] (setting [2]), the half-inhibitory concentration (IC50) is over 617 µM. Further, the “anti-α-glucosidase activity IC50” value on α-glucosidase was 283.67 µg/mL. Turning to `CC[C@H](CC[C@@H](C)[C@H]1CC[C@H]2[C@@H]3CC=C4C[C@@H](O[C@@H]5O[C@H](CO)[C@@H](O)[C@H](O)[C@H]5O)CC[C@]4(C)[C@H]3CC[C@]12C)C(C)C` [Compound 2, daucosterol], the IC50 in assay [1] (setting [2]) was over 444 µM. Moreover, the “anti-α-glucosidase activity IC50” value at α-glucosidase is 247.35 µg/mL. Take `CCCCCCCCCCCCCCCC(=O)OC[C@H]1O[C@@H](O[C@H]2CC[C@@]3(C)C(=CCC4C3CC[C@@]3(C)C4CC[C@@H]3[C@H](C)/C=C/[C@@H](CC)C(C)C)C2)[C@H](O)[C@@H](O)[C@@H]1O` (stereo partly drawn) [Compound 3, 3-O-(6′-O-palmitoyl)-β-D-glucopyranosyl stigmasterol]: the IC50 in assay [1] (setting [2]) was over 315 µM. On to `C[C@H]1[C@H](C)CC[C@]2(C(=O)O)CC[C@]3(C)C(=CC[C@@H]4[C@@]5(C)CC[C@H](O)C(C)(C)[C@@H]5CC[C@]43C)[C@H]12` [Compound 4, ursolic acid], for which the midpoint of inhibition in assay [1], the IC50, lay at 3.07 µM. In addition, the manner of inhibition entry with α-glucosidase is “non-competitive”. Take `C[C@@H]1O[C@@H](Oc2c(-c3ccc(O)c(O)c3)oc3cc(O)cc(O)c3c2=O)[C@H](O)[C@H](O)[C@H]1O` [Compound 7, quercitrin]: the IC50 in assay [1] was 375 µM; on α-glucosidase (Dang's group, read-out: α-glucosidase inhibitory activity IC50) it was 26.5 µM.

`CC1OC(Oc2c(-c3ccc(O)c(OC4OC(CO)C(O)C(O)C4O)c3)oc3cc(O)cc(O)c3c2=O)C(O)C(O)C1O` (stereo not drawn) [Compound 8, quercetin-3-rhamnoside-3′-glucoside]: in assay [1] (setting [2]), the IC50 was over 419 µM. The same measure, in the same setting: with `CC1=CC(=O)CC(C)(C)[C@H]1/C=C/[C@@H](C)O` [Compound 9, (6R,9R)-9-hydroxy-4,7-megastigmadien-3-one] the figure was over 1230 µM; with `CC(=O)C=C=C1C(C)(C)C[C@H](O)C[C@]1(C)O` [Compound 10, grasshopper ketone], over 1140 µM; with `CC1=CC(=O)CC(C)(C)[C@H]1/C=C/[C@@H](C)O[C@@H]1O[C@H](CO[C@@H]2OC[C@](O)(CO)[C@H]2O)[C@@H](O)[C@H](O)[C@H]1O` [Compound 11, (6R,7E,9R)-9-hydroxy-4,7-megastigmadien-3-one-9-O-β-D-apiofuranosyl(1->6)-β-D-glucopyranoside], over 509 µM. Turning to `CC1=CC(=O)CC(C)(C)[C@@]1(O)/C=C/[C@@H](C)O` [Compound 12, vomifoliol], the concentration for half-maximal inhibition (IC50) in assay [1] was over 1140 µM. For the same molecule, in the assay on α-glucosidase, the “α-glucosidase inhibitory activity (in words)” value is “inactive”.

With `COC(=O)/C=C/c1ccc(O)cc1` [Compound 13, methyl trans-p-coumarate], the IC50 is over 1440 µM in assay [1] (setting [2]) and 54.1 µM on α-glucosidase (read-out: inhibition of α-glucosidase IC50). Turning to `CC1=C(O)C(=O)OC1C` (stereo not drawn) [Compound 16, sotolone], the IC50 in assay [1] (setting [2]) was over 2000 µM.
